In ChEMBL document CHEMBL1121758, “(-)-4-Hydroxymorphinanones: their synthesis and analgesic activity” (1981):
Calls of active or inactive are those of the source. No cut-off for these calls is given here.

Legend:
[1] = species: Mus musculus; assay: Antinociceptive activity determined in acetic acid induced mouse writhing test; format: functional
[2] = test system: Rattus norvegicus; assay: Antagonist activity (administered subcutaneously) determined by rat tail flick test; format: functional; conditions: sc
[3] = test system: Rattus norvegicus; assay: Agonist activity (administered subcutaneously) determined by rat tail flick test; format: functional; conditions: sc
[4] = test system: Rattus norvegicus; assay: Antagonist activity (administered subcutaneously) determined by rat tail flick test; Inactive at 10 mg/kg; format: functional, organism-based; parameters: dose 10 mg/kg

Row | SMILES | ED50 [1] | ED50 [2] | ED50 [3] | ED50 [4]
1 | O=C1CCC2C3Cc4cccc5c4C2(CCN3CC2CC2)C1O5 (centres undefined) | 0.06 mg/kg | 12.5 mg/kg |  | 
2 | O=C1CCC2C3Cc4ccc(O)cc4C2(CCN3CC2CC2)C1 (centres undefined) |  | 2.3 mg/kg |  | 
3 | CN1CCC23CC(=O)CCC2C1Cc1cccc(O)c13 (centres undefined) | 0.18 mg/kg |  | 19.2 mg/kg | 
4 | COc1cccc2c1C13CCN(C)C(C2)C1CCC(=O)C3 (centres undefined) | 0.21 mg/kg |  |  | 
5 | CN1CCC23CC(=O)CCC2C1Cc1ccc(O)cc13 (centres undefined) | 0.15 mg/kg |  | 20 mg/kg | 
6 | CN1CC[C@]23c4c5ccc(O)c4O[C@H]2[C@@H](O)C=C[C@H]3[C@H]1C5.CN1CC[C@]23c4c5ccc(O)c4O[C@H]2[C@@H](O)C=C[C@H]3[C@H]1C5.O=S(=O)(O)O | 0.8 mg/kg |  | 7.3 mg/kg | 
7 | O=C1CCC2C3Cc4cccc(O)c4C2(CCN3CC2CC2)C1 (centres undefined) | 0.64 mg/kg |  |  | inactive
8 | C=CCN1CC[C@]23c4c5ccc(O)c4O[C@H]2[C@@H](O)C=C[C@H]3[C@H]1C5 [NALORPHINE] | 1.22 mg/kg | 0.86 mg/kg |  | 
